Laboratory results reported in patent US10632116B2, “Combinations of serotonin receptor agonists for treatment of movement disorders” (Contera Pharma A/S, priority 2010, dated 2020).

How the values were obtained:
[1] = test system: L-DOPA induced dyskinesia; details: cited from earlier work
[2] = test system: 6-OHDA unilateral lesion model rats; assay: Forepaw adjusting steps (FAS), 6-OHDA induced akinesia; format: in vivo, rat; details: first study; acute L-DOPA 3 mg/kg with 15 mg/kg benserazide s.c.
Experimental: Animals: 60 Sprague-Dawley male rats (290 g-340 g, bought from SLAC Laboratory Animal Co. Ltd at an age of 8-10 weeks). Rats were housed in groups of n=2/cage. […] Animal housing and testing rooms were maintained under controlled environmental conditions and were within close proximity of each other. Animal housing rooms were on a 12-hour light-dark cycle with lights on at 6:00 AM and maintained at 70° F./21° C. (range: 68-72° F./20-22° C.) with a humidity range of 20-40%. Testing rooms were maintained at 68-72° F. with a humidity range of 20-40%.
Dopamine (DA)-denervating lesions were performed by unilateral injection of 6-OHDA in the median forebrain bundle containing the ascending nigrostraital pathway. Rats were anesthetized with pentobarbital sodium 40 mg/kg (i.p.) and positioned in a stereotactic frame. 6-OHDA was injected at the following coordinates (in mm) relative to bregma and dural surface: Tooth bar: −3.3 mm, AP: −1.8 mm, ML: −2.0 mm, DV: −8.6 mm (18 μg/6 μl 6-OHDA). […]
After recovery from surgery, rats with nearly complete (>90%) lesions were selected by means of an apomorphin-induced rotation test. […] Quantification of the rotational response was accomplished in rats by counting the turns in 30 minutes. […]
Each baseline adjusting step test consisted of two subtests of the day and the mean of the two subtests were calculated as baseline. […]

Huntington's disease = details: patient suffering from Huntington's disease; cited from earlier work
Parkinson's disease = details: doses 10-60 mg/day; cited from earlier work
[3] = test system: unilaterally 6-OHDA-lesioned rats; assay: L-DOPA induced AIMs and drugs screening test (6-OHDA rat model); format: in vivo
Sprague-Dawley (SD) rats = assay: Rotarod test (Example V, sedation/motor performance); format: in vivo, rat; details: FIG. 2; pentobarbital 15 mg/kg i.p., 30 min before test; positive control
Source text: The present study describes the evaluation of zolmitriptan and buspirone in the 6-OHDA rat model in a study using the rotarod test. Using this study, a treatment with combination of compounds according to the present invention can be evaluated for their sedative effects, and/or their effects on the motor performance compared to sedated rats and to rats which only had saline injections.
In brief, the animals (30 SD male rats (180-220 g, bred in house, originally from SLAC Laboratory Animal Co. Ltd) at 9-week of age) were trained twice a day for a 3-day period. […] Each training trial was ended if the animal fell off or grips the device and spun around for two consecutive revolutions. The time that rat stayed on the Rotarod was recorded. The staying duration recorded at last training trail was used as baseline. Rats were grouped according a randomly distribution of baseline.
For the test session on the fourth day, the rats were evaluated on the Rotarod with the same setting as above at 30 min after dosing. The rats were dosed with drugs as described below. Dosing and Rotarod measurement were conducted by two scientists separately. Pentobarbital (15 mg/kg. i.p.) was used a as a positive control.
(§1) Vehicle: Saline, i.p., 30 min before test, n=10
(§2) Positive control: Pentobarbital 15 mg/kg, i.p. 30 min before test, n=10 […]
The data were analyzed using One-Way ANOVA and the Tukey post-hoc test.

naïve rats = assay: Open field test (Example VI, locomotor activity); format: in vivo, rat; details: FIG. 3; pentobarbital 15 mg/kg i.p., 30 min before test; positive control
Source text: The present study describes the evaluation of zolmitriptan and buspirone in the 6-OHDA rat model. Using this study, a treatment with combination of compounds according to the present invention can be evaluated for their sedative effects, and/or their effects on the motor performance compared to sedated rats and to rats which only had saline injections.
The open field test was used to determine the effects of drug on locomotor activity. Rats were put in open-field chambers (dimensions 40 cm×40 cm) 30 minutes after dosing. After a 15 minutes habituation, locomotion were recorded and analysed by Enthovision Video Tracking Software (Noldus Information Technology, Netherlands) for 60 minutes. All locomotor activities were done during dark phase and to eliminate olfactory cues, the arena was thoroughly cleaned with 70% v/v ethanol between each test.
as §1, §2
Statistical analysis: The total locomotor activity is expressed as total moved distance (cm) and average velocity (cm/s) during 60 minutes. The data were analysed using One-Way ANOVA and the Tukey post-hoc test. The locomotor activity in six time point is expressed as moved distance (cm) and average velocity (cm/s) every 10 minutes. The data were analysed using One-Way ANOVA and the Tukey post-hoc test in each time point.

For `Fc1ccc(-c2cncc(CNC[C@H]3CCc4ccccc4O3)c2)cc1` [sarizotan, 1-[(2R)-3,4-dihydro-2H-chromen-2-yl]-N-([5-(4-fluorophenyl)pyridin-3-yl]-methyl)methanamine], the LID ([1]; phase 2A study and open labeled study) is listed as “reduced LID” and the “effects compared to placebo” value ([1]; several large phase 2b studies) is listed as “no significant effects”.
For `N[C@@H](Cc1ccc(O)c(O)c1)C(=O)O` [L-DOPA, 3,4-dihydroxyphenylalanine], the “6-OHDA induced akinesia (forelimb use)” value [2] was “alleviated 6-OHDA induced akinesia”.
In the case of `O=C1[C@H]2CCCC[C@H]2C(=O)N1CCCCN1CCN(c2nsc3ccccc23)CC1` [perospirone, (3 aR,7aS)-2-{4-[4-(1,2-benzisothiazol-3-yl)piperazin-1-yl]butyl}hexahydro-1H-isoindole-1,3(2H)-dione], the involuntary movement (Huntington's disease) is listed as “could reduce involuntary movement”.
In the case of `O=C1CC2(CCCC2)CC(=O)N1CCCCN1CCN(c2ncccn2)CC1` [buspirone, 8-[4-(4-pyrimidin-2-ylpiperazin-1-yl)butyl]-8-azaspiro[4.5]decane-7,9-dione], the “effects on Parkinson's disease or dyskinesia” value (Parkinson's disease) is listed as “did not have any effects”, the “L-DOPA induced AIM (Total AIMs)” value ([3]; Example IV, FIG. 1, buspirone alone 1 mg/kg/day i.p.) is listed as “only partly reduced AIM” and the “L-DOPA induced AIM (Total AIMs)” value ([3]; Example VII, FIG. 4, buspirone alone 0.5 mg/kg i.p.) is listed as “only partly reduced AIM”.
With `CN(C)CCc1c[nH]c2ccc(C[C@H]3COC(=O)N3)cc12` [zolmitriptan, (S)-4-([3-[2-(dimethylamino)ethyl]-1H-indol-5-yl]methyl)-1,3-oxazolidin-2-one] the “L-DOPA induced AIM (Total AIMs)” value ([3]; Example IV, FIG. 1, zolmitriptan alone 10 mg/kg/day) was “did not reduce AIM”.
In the case of `CCCC(C)C1(CC)C(=O)NC(=O)NC1=O` (stereo not shown) [pentobarbital], the “rotarod performance (time spent on the accelerating rod)” value (Sprague-Dawley (SD) rats) is reported as “significantly reduced time spend on the rotarod” and the “open field test motor performance” value (naïve rats) is reported as “significantly reduced motor performance”.
